The structures appear in SMILES notation.

The data set is described as follows: Gravimetric Vapour Sorption (GVS), with XRPD of the recovered sample. The data set is classed as physicochemical. As to the method:
Sorption isotherms were obtained using a SMS DVS Intrinsic moisture sorption analyzer, controlled by DVS Intrinsic Control software v1.0.1.2 (or v 1.0.1.3). The sample temperature was maintained at 25° C. by the instrument controls. The humidity was controlled by mixing streams of dry and wet nitrogen, with a total flow rate of 200 ml/min. The relative humidity was measured by a calibrated Rotronic probe (dynamic range of 1.0-100% RH), located near the sample. The weight change, (mass relaxation) of the sample as a function of % RH was constantly monitored by the microbalance (accuracy ±0.005 mg).
A sample (e.g., 20 mg) was placed in a tared mesh stainless steel basket under ambient conditions. The sample was loaded and unloaded at 40% RH and 25° C. (typical room conditions). A moisture sorption isotherm was performed as outlined below (2 scans giving 1 complete cycle). Standard isotherms were performed at 25° C. at 10% RH intervals over a 0-90% RH range. Data analysis was carried out using Microsoft Excel using DVS Analysis Suite v6.2 (or 6.1 or 6.0).
In a cycle of 2 scans, the first scan was performed with adsorption of 40-90% RH, followed by a second scan with desorption of 90-0% RH and adsorption of 0-40% RH, with intervals of 10% RH, at 25° C. with stability dm/dt of 0.002% ° C./min. The sorption time was 6 hr time out.
The sample was recovered after completion of the isotherm and re-analyzed by XRPD. Custom moisture sorption methods were also performed at 25° C. at fixed % RH intervals over a 0-95% RH range, with the purpose to fully understand the sorption/desorption behavior of the compound under elevated conditions.
To further explore the humidity behavior of Sample 1 (Form 1) upon exposure to high RH (>90%), custom GVS experiments were designed and carried out. Initially, the sample was treated by holding at 90 and then 95% RH for ˜12 hours to see if hydrate formation could be observed (HighRH method of Steps 1 and 2 of Table 2, FIGS. 6C-6D).
To test the stability of the hydrated state, GVS method HighRH_Desorp_3 was designed with a desorption step and subsequent adsorption (see Table 2 with steps 1-4, FIGS. 6E-6F).
Finally, to ensure complete conversion to the anhydrous and hydrated forms, a GVS experiment was designed to increase both the length of the desorption step at 0% RH, and the adsorption step at 95% RH, respectively (Table 3). Based on the weight stabilization observed in the kinetic plots for Sample 1 in HighRH and HighRH_Desorp_3 methods discussed above (FIGS. 6D and 6F), a holding time of 800 mins at 0% RH and 1600 mins at 95% RH were chosen. A double cycle was also recorded for this experiment to observe whether the sample would return to Form 1 or form a mixed anhydrous/hydrated species (see Table 3, FIGS. 6G-6H).

As to `CCNCCc1ccc(CN(CC)c2cc(OC)ccc2[C@@H]2CCc3cc(O)ccc3C2)cc1.Cl.Cl` [Sample 1], for the setting “25° C., 0-90% RH”, the “GVS uptake 0-90% RH” value is 1.8% wt. The “GVS uptake when held at 95% RH” value (HighRH method, held at 95% RH for ~12 hours) is recorded as 5-6 % wt. Further, the “Solid form on exposure to high RH (>90%) by GVS” value (above 90% RH) was “irreversibly converted to a hydrate (Form 3)”. The “XRPD post GVS (HighRH_DoubleCycle_2 method)” value (double cycle, 1600 mins at 95% RH, 800 mins at 0% RH) was “formation of the hydrate (Form 3)”. For the same molecule, the “XRPD post GVS (HighRH method)” value (held at 90 and then 95% RH for ~12 hours) is given as “mixture of states or incomplete conversion”. Moreover, under “single cycle: to 95% RH, desorption to 0% RH, adsorption 0-40% RH”, the “XRPD post GVS (HighRH_Desorp_3 method)” value is “mixture of Form 1 and Form 3”.

The record behind these values is patent publication US11708318B2, “Polymorphic forms of RAD1901-2HCL” (Radius Pharmaceuticals, Inc., priority 2017, dated 2023).
